In ChEMBL document CHEMBL3297661, “1-Substituted-5-[(3,5-dinitrobenzyl)sulfanyl]-1H-tetrazoles and their isosteric analogs: A new class of selective antitubercular agents active against drug-susceptible and multidrug-resistant mycobacteria” (Eur J Med Chem, 2014):
Values after ≈ are worked out from the molar mass of the structure shown.

Columns and labels:
Assay type in all cases: functional
Mycobacterium kansasii [1] = assay: Antimycobacterial activity against Mycobacterium kansasii 6509/96 after 7 days by micromethod; settings: 6509/96, 168 h
Mycobacterium kansasii [2] = assay: Antimycobacterial activity against Mycobacterium kansasii CNCTC My 235/80 after 21 days by micromethod; settings: CNCTC My 235/80, 504 h
Mycobacterium kansasii [3] = assay: Antimycobacterial activity against Mycobacterium kansasii CNCTC My 235/80 after 7 days by micromethod; settings: CNCTC My 235/80, 168 h
Mycobacterium avium [4] = assay: Antimycobacterial activity against Mycobacterium avium CNCTC My 330/88 after 14 days by micromethod; settings: CNCTC My 330/88, 336 h
Mycobacterium kansasii [5] = assay: Antimycobacterial activity against Mycobacterium kansasii CNCTC My 235/80 after 14 days by micromethod; settings: CNCTC My 235/80, 336 h
[6] = test system: Mycobacterium tuberculosis; assay: Antimycobacterial activity against Mycobacterium tuberculosis CNCTC My 331/88 after 21 days by micromethod; settings: CNCTC My 331/88, 504 h
Mycobacterium kansasii [7] = assay: Antimycobacterial activity against Mycobacterium kansasii 6509/96 after 14 days by micromethod; settings: 6509/96, 336 h
Mycobacterium avium [8] = assay: Antimycobacterial activity against Mycobacterium avium CNCTC My 330/88 after 21 days by micromethod; settings: CNCTC My 330/88, 504 h
Mycobacterium kansasii [9] = assay: Antimycobacterial activity against Mycobacterium kansasii 6509/96 after 21 days by micromethod; settings: 6509/96, 504 h
[10] = test system: Mycobacterium tuberculosis; assay: Antimycobacterial activity against Mycobacterium tuberculosis CNCTC My 331/88 after 14 days by micromethod; settings: CNCTC My 331/88, 336 h

Row | Compound | MIC (Mycobacterium kansasii [1]) [µM] | MIC (Mycobacterium kansasii [2]) [µM] | MIC (Mycobacterium kansasii [3]) [µM] | MIC (Mycobacterium avium [4]) [µM] | MIC (Mycobacterium kansasii [5]) [µM] | MIC [6] [µM] | MIC (Mycobacterium kansasii [7]) [µM] | MIC (Mycobacterium avium [8]) [µM] | MIC (Mycobacterium kansasii [9]) [µM] | MIC [10] [µM]
1 | CCCCCCn1nnnc1SCc1cc([N+](=O)[O-])cc([N+](=O)[O-])c1 | 2 (≈ 0.733 µg/mL) | 8 (≈ 2.93 µg/mL) | 2 (≈ 0.733 µg/mL) | 32 (≈ 11.7 µg/mL) | 4 (≈ 1.47 µg/mL) | 2 (≈ 0.733 µg/mL) | 4 (≈ 1.47 µg/mL) | 62 (≈ 22.7 µg/mL) | 8 (≈ 2.93 µg/mL) | 1 (≈ 0.366 µg/mL)
2 | NNC(=O)c1ccncc1 [ISONIAZID] | 4 (≈ 0.549 µg/mL) |  | > 250 | > 250 | > 250 | 1 (≈ 0.137 µg/mL) | 4 (≈ 0.549 µg/mL) | > 250 | 4 (≈ 0.549 µg/mL) | 0.5 (≈ 0.0686 µg/mL)
3 | CSCc1cc([N+](=O)[O-])cc([N+](=O)[O-])c1 | 125 (≈ 28.5 µg/mL) | 250 (≈ 57.1 µg/mL) | 62 (≈ 14.2 µg/mL) | 250 (≈ 57.1 µg/mL) | 125 (≈ 28.5 µg/mL) | 125 (≈ 28.5 µg/mL) | 250 (≈ 57.1 µg/mL) | 250 (≈ 57.1 µg/mL) | 500 (≈ 114 µg/mL) | 62 (≈ 14.2 µg/mL)
4 | O=[N+]([O-])c1cc(COc2nnnn2-c2ccc(Br)cc2)cc([N+](=O)[O-])c1 | 4 (≈ 1.68 µg/mL) | 16 (≈ 6.74 µg/mL) | 8 (≈ 3.37 µg/mL) | 125 (≈ 52.6 µg/mL) | 16 (≈ 6.74 µg/mL) | 4 (≈ 1.68 µg/mL) | 16 (≈ 6.74 µg/mL) | 125 (≈ 52.6 µg/mL) | 16 (≈ 6.74 µg/mL) | 2 (≈ 0.842 µg/mL)
5 | CCCCCCCCCCCCCCCCSCc1cc([N+](=O)[O-])cc([N+](=O)[O-])c1 | 500 (≈ 219 µg/mL) | 500 (≈ 219 µg/mL) | 500 (≈ 219 µg/mL) | 1000 (≈ 439 µg/mL) | 500 (≈ 219 µg/mL) | 1000 (≈ 439 µg/mL) | 500 (≈ 219 µg/mL) | 1000 (≈ 439 µg/mL) | 500 (≈ 219 µg/mL) | 1000 (≈ 439 µg/mL)
6 | COc1ccc(-n2nnnc2S(=O)(=O)Cc2cc([N+](=O)[O-])cc([N+](=O)[O-])c2)cc1 | 125 (≈ 52.5 µg/mL) | 250 (≈ 105 µg/mL) | 125 (≈ 52.5 µg/mL) | 125 (≈ 52.5 µg/mL) | 250 (≈ 105 µg/mL) | 8 (≈ 3.36 µg/mL) | 125 (≈ 52.5 µg/mL) | 125 (≈ 52.5 µg/mL) | 125 (≈ 52.5 µg/mL) | 8 (≈ 3.36 µg/mL)
7 | O=[N+]([O-])c1ccc(CSc2nnnn2-c2ccccc2)c([N+](=O)[O-])c1 | 8 (≈ 2.87 µg/mL) | 62 (≈ 22.2 µg/mL) | 16 (≈ 5.73 µg/mL) | 32 (≈ 11.5 µg/mL) | 62 (≈ 22.2 µg/mL) | 16 (≈ 5.73 µg/mL) | 32 (≈ 11.5 µg/mL) | 62 (≈ 22.2 µg/mL) | 32 (≈ 11.5 µg/mL) | 8 (≈ 2.87 µg/mL)
8 | O=[N+]([O-])c1cc(CSc2nnnn2-c2ccc(Br)cc2)cc([N+](=O)[O-])c1 | 2 (≈ 0.874 µg/mL) | 2 (≈ 0.874 µg/mL) | 1 (≈ 0.437 µg/mL) | 125 (≈ 54.7 µg/mL) | 2 (≈ 0.874 µg/mL) | 1 (≈ 0.437 µg/mL) | 4 (≈ 1.75 µg/mL) | 125 (≈ 54.7 µg/mL) | 4 (≈ 1.75 µg/mL) | 1 (≈ 0.437 µg/mL)
9 | O=[N+]([O-])c1cc(CS(=O)(=O)c2nnnn2-c2ccccc2)cc([N+](=O)[O-])c1 | 32 (≈ 12.5 µg/mL) | 62 (≈ 24.2 µg/mL) | 32 (≈ 12.5 µg/mL) | 62 (≈ 24.2 µg/mL) | 62 (≈ 24.2 µg/mL) | 8 (≈ 3.12 µg/mL) | 62 (≈ 24.2 µg/mL) | 125 (≈ 48.8 µg/mL) | 62 (≈ 24.2 µg/mL) | 8 (≈ 3.12 µg/mL)
10 | O=[N+]([O-])c1cc(CSc2nnnn2-c2cccc(F)c2)cc([N+](=O)[O-])c1 | 4 (≈ 1.51 µg/mL) | 8 (≈ 3.01 µg/mL) | 4 (≈ 1.51 µg/mL) | 250 (≈ 94.1 µg/mL) | 4 (≈ 1.51 µg/mL) | 32 (≈ 12 µg/mL) | 8 (≈ 3.01 µg/mL) | 250 (≈ 94.1 µg/mL) | 8 (≈ 3.01 µg/mL) | 16 (≈ 6.02 µg/mL)
11 | O=[N+]([O-])c1cc(CSc2ccccc2)cc([N+](=O)[O-])c1 | 500 (≈ 145 µg/mL) | 250 (≈ 72.6 µg/mL) | 250 (≈ 72.6 µg/mL) | 250 (≈ 72.6 µg/mL) | 250 (≈ 72.6 µg/mL) | 250 (≈ 72.6 µg/mL) | 500 (≈ 145 µg/mL) | 250 (≈ 72.6 µg/mL) | 500 (≈ 145 µg/mL) | 250 (≈ 72.6 µg/mL)
12 | O=[N+]([O-])c1cc(CSc2nnnn2-c2ccc(F)cc2)cc([N+](=O)[O-])c1 | 4 (≈ 1.51 µg/mL) | 4 (≈ 1.51 µg/mL) | 2 (≈ 0.753 µg/mL) | 250 (≈ 94.1 µg/mL) | 4 (≈ 1.51 µg/mL) | 2 (≈ 0.753 µg/mL) | 8 (≈ 3.01 µg/mL) | 250 (≈ 94.1 µg/mL) | 16 (≈ 6.02 µg/mL) | 2 (≈ 0.753 µg/mL)
13 | O=[N+]([O-])c1ccc(CSc2nnnn2-c2ccc([N+](=O)[O-])cc2)cc1 | 250 (≈ 89.6 µg/mL) | 250 (≈ 89.6 µg/mL) | 250 (≈ 89.6 µg/mL) | 250 (≈ 89.6 µg/mL) | 250 (≈ 89.6 µg/mL) | 250 (≈ 89.6 µg/mL) | 250 (≈ 89.6 µg/mL) | 250 (≈ 89.6 µg/mL) | 250 (≈ 89.6 µg/mL) | 250 (≈ 89.6 µg/mL)
14 | N#CSCc1cc([N+](=O)[O-])cc([N+](=O)[O-])c1 | 4 (≈ 0.957 µg/mL) | 16 (≈ 3.83 µg/mL) | 2 (≈ 0.478 µg/mL) | 32 (≈ 7.65 µg/mL) | 8 (≈ 1.91 µg/mL) | 4 (≈ 0.957 µg/mL) | 8 (≈ 1.91 µg/mL) | 62 (≈ 14.8 µg/mL) | 16 (≈ 3.83 µg/mL) | 4 (≈ 0.957 µg/mL)
15 | CCCCCCn1nnnc1[Se]Cc1cc([N+](=O)[O-])cc([N+](=O)[O-])c1 | 2 (≈ 0.827 µg/mL) | 2 (≈ 0.827 µg/mL) | 1 (≈ 0.413 µg/mL) | 16 (≈ 6.61 µg/mL) | 2 (≈ 0.827 µg/mL) | 1 (≈ 0.413 µg/mL) | 4 (≈ 1.65 µg/mL) | 32 (≈ 13.2 µg/mL) | 4 (≈ 1.65 µg/mL) | 1 (≈ 0.413 µg/mL)
